Laboratory results published in patent US10683290B2, “Tricyclic compounds as anticancer agents” (BRISTOL-MYERS SQUIBB COMPANY, priority 2015, dated 2020).

Molecular target: BRD4 (Homo sapiens, UniProt O60885)
Test: biochemical
Format: binding
Conditions: one of the FRET assays described; read-out: FRET BRD4 IC50

Q: Which IC50 does the source give for `[2H]C([2H])([2H])c1nnn(C)c1-c1ccc2c3ncc(S(C)(=O)=O)cc3n([C@H](c3ccccc3)C3CCOCC3)c2c1` [Example 27, 5-{3-Methanesulfonyl-5-[(S)-oxan-4-yl(phenyl)methyl]-5H-pyrido[3,2-b]indol-7-yl}-4-(^2H3)methyl-1-methyl-1H-1,2,3-triazole] here?
A: < 5 nM

Q: `[2H]C([2H])([2H])c1nnn(C)c1-c1cc2c(cc1F)c1ncc(S(C)(=O)=O)cc1n2[C@H](c1ccccc1F)C1CCOCC1` [Example 28, 5-{8-Fluoro-5-[(S)-(2-fluorophenyl)(oxan-4-yl)methyl]-3-methanesulfonyl-5H-pyrido[3,2-b]indol-7-yl}-4-(^2H3)methyl-1-methyl-1H-1,2,3-triazole] was tested. Which IC50 did it give?
A: < 1 nM

Q: With `Cc1nnn(C)c1-c1ccc2c3ncc(C(=O)O)cc3n([C@H](c3ccccc3F)C3CCOCC3)c2c1` [Example 29, 7-(Dimethyl-1H-1,2,3-triazol-5-yl)-5-[(S)-(2-fluorophenyl)(oxan-4-yl)methyl]-5H-pyrido[3,2-b]indole-3-carboxylic acid] as the compound, how does the IC50 read?
A: < 5 nM

Q: Which IC50 does the source give for `[2H]C([2H])([2H])c1nnn(C)c1-c1cc2c(cc1F)c1ncc(C(C)(C)O)cc1n2C(c1ncccc1F)C1CCOCC1` (stereo not shown) [Example 30, 2-{8-Fluoro-5-[(3-fluoropyridin-2-yl)(oxan-4-yl)methyl]-7-[4-(^2H3)methyl-1-methyl-1H-1,2,3-triazol-5-yl]-5H-pyrido[3,2-b]indol-3-yl}propan-2-ol] here?
A: < 1 nM

Q: Which IC50 does the source give for `[2H]C([2H])([2H])c1nnn(C)c1-c1cc2c(cc1F)c1ncc(C(C)(C)O)cc1n2C(c1ncccc1F)C1CCOCC1` (stereo not shown) [Example 31, 2-{8-Fluoro-5-[(3-fluoropyridin-2-yl)(oxan-4-yl)methyl]-7-[4-(^2H3)methyl-1-methyl-1H-1,2,3-triazol-5-yl]-5H-pyrido[3,2-b]indol-3-yl}propan-2-ol] here?
A: < 5 nM

Q: How did the IC50 turn out when `[2H]C([2H])([2H])c1nnn(C)c1-c1cc2c(cc1F)c1ncc(C(C)(C)O)cc1n2[C@H](c1ccccc1)C1CCOCC1` [Example 32, 2-{8-Fluoro-7-[4-(^2H3)methyl-1-methyl-1H-1,2,3-triazol-5-yl]-5-[(S)-(oxan-4-yl)(phenyl)methyl]-5H-pyrido[3,2-b]indol-3-yl}propan-2-ol] was run?
A: < 1 nM

Q: How did the IC50 turn out when `[2H]C([2H])([2H])c1onc(C)c1-c1cc2c(cc1F)c1ncc(C(C)(C)O)cc1n2[C@H](c1ccccc1)C1CCOCC1` [Example 33, 2-{8-Fluoro-7-[5-(^2H3)methyl-3-methyl-1,2-oxazol-4-yl]-5-[(S)-(oxan-4-yl)(phenyl)methyl]-5H-pyrido[3,2-b]indol-3-yl}propan-2-ol] was run?
A: < 1 nM

Q: Which IC50 does the source give for `[2H]C([2H])([2H])c1nnn(C)c1-c1cc2c(cc1F)c1ncc(C(C)(C)O)cc1n2C(c1cc(C)on1)C1CCOCC1` (stereo not shown) [Example 34, 2-{8-Fluoro-5-[(5-methyl-1,2-oxazol-3-yl)(oxan-4-yl)methyl]-7-[4-(^2H3)methyl-1-methyl-1H-1,2,3-triazol-5-yl]-5H-pyrido[3,2-b]indol-3-yl}propan-2-ol] here?
A: < 1 nM

Q: How did the IC50 turn out when `[2H]C([2H])([2H])c1nnn(C)c1-c1cc2c(cc1F)c1ncc(C(C)(C)O)cc1n2C(c1cc(C)on1)C1CCOCC1` (stereo not shown) [Example 35, 2-{8-Fluoro-5-[(5-methyl-1,2-oxazol-3-yl)(oxan-4-yl)methyl]-7-[4-(^2H3)methyl-1-methyl-1H-1,2,3-triazol-5-yl]-5H-pyrido[3,2-b]indol-3-yl}propan-2-ol] was run?
A: < 1500 nM

Q: Which IC50 does the source give for `[2H]C([2H])([2H])c1nnn(C)c1-c1cc2c(cc1Cl)c1ncc(C(C)(C)O)cc1n2[C@H](c1ccccc1)C1CCOCC1` [Example 77, 2-{8-chloro-7-[4-(^2H3)methyl-1-methyl-1H-1,2,3-triazol-5-yl]-5-[(S)-oxan-4-yl(phenyl)methyl]-5H-pyrido[3,2-b]indol-3-yl}propan-2-ol] here?
A: < 1500 nM
